Here are results for 19 compounds from patent US8129355B2, “Ketone ligands for modulating the expression of exogenous genes via an ecdysone receptor complex” (priority 2002, dated 2012).

Read-outs that look alike come from different tables or passages of the source.

Data set [1] has as its target T1, Bombyx mori EcR (VP16 fusion, switch construct CVBE) with 6XEcRE LacZ reporter (Bombyx mori, UniProt P49881).
T1 construct: expressed in transfected cells; host or cells: Human 293 kidney (HEK-293) cells, retrovirally infected, clone Z3
T1 sequence (P49881 86-606 limits assumed): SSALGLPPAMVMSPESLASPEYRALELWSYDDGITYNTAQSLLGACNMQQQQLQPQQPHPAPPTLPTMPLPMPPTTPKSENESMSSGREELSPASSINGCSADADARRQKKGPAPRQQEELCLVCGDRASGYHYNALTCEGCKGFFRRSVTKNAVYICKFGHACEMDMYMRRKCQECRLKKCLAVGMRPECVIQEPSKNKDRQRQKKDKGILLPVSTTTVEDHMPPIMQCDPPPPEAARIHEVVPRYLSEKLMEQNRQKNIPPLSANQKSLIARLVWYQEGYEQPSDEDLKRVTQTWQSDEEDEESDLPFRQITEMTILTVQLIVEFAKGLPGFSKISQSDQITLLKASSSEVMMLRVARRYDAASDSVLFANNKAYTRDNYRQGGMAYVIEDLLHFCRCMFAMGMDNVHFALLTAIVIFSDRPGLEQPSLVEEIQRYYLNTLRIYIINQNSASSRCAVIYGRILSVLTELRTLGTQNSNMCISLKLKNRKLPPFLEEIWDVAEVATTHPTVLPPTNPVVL
T1 sequence (P19793 1-462 partner): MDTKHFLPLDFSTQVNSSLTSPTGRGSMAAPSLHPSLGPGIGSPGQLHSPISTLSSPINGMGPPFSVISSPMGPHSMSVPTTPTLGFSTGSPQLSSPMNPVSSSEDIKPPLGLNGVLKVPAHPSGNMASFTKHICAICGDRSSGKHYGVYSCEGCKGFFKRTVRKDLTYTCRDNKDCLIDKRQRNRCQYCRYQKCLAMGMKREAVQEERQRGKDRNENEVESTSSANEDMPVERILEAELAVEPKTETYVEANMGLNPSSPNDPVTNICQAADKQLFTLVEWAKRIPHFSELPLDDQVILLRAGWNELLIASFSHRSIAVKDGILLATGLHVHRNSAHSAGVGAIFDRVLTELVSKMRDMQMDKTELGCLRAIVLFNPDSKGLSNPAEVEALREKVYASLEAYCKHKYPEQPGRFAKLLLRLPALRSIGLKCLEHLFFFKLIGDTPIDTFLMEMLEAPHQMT
The data set can be described thus: Z3 assay: β-galactosidase (LacZ) reporter gene fold induction in stably transformed human 293 kidney cells (clone Z3). It is filed as cell-based. The text has this:
Dr. F. Gage provided a population of stably transformed cells containing CVBE and 6XEcRE as described in Suhr, S. T., Gil, E. B., Senut M. C., Gage, F. H. (1998) Proc. Natl. Acad. Sci. USA 95, 7999-804. Human 293 kidney cells, also referred to as HEK-293 cells, were sequentially infected with retroviral vectors encoding first the switch construct CVBE, and subsequently the reporter construct 6XEcRE Lac Z. The switch construct contained the coding sequence for amino acids 26-546 from Bombyx mori EcR (BE) (Iatrou) inserted in frame and downstream of the VP16 transactivation domain (VBE). A synthetic ATG start codon was placed under the control of cytomegalovirus (CVBE) immediate early promoter and flanked by long terminal repeats (LTR). The reporter construct contained six copies of the ecdysone response element (EcRE) binding site placed upstream of LacZ and flanked on both sides with LTR sequences (6XEcRE).
Dilution cloning was used to isolate individual clones. Clones were selected using 450 ug/mL G418 and 100 ng/mL puromycin. Individual clones were evaluated based on their response in the presence and absence of test ligands. Clone Z3 was selected for screening and SAR purposes.
Human 293 kidney cells stably transformed with CVBE and 6XEcRE lack were maintained in Minimum Essential Medium (Mediates, 10-010-CV) containing 10% FBS (Life Technologies, 26140-087), […] G418 (Mediates, 30-234-CR), and […] (Sigma, P-7255), at 37° C. in an atmosphere containing 5% CO2 and were subculture when they reached 75% confluence.
Z3 cells were seeded into 96-well tissue culture plates at a concentration of 2.5×10^3 cells per well and incubated at 37° C. in 5% CO2 for twenty-four hours. Stock solutions of ligands were prepared in DMSO. Ligand stock solutions were diluted 100 fold in media and 50 μL of this diluted ligand solution (33 μM) was added to cells. The final concentration of DMSO was maintained at […] in both controls and treatments.
Reporter gene expression was evaluated 48 hours after treatment of cells, β-galactosidase activity was measured using Gal Screen™ bioluminescent reporter gene assay system from Tropix (GSY1000).
Flanking both constructs are long terminal repeats, G418 and puromycin are selectable markers, CMV is the cytomegalovirus promoter, VBE is coding sequence for amino acids 26-546 from Bombyx mori EcR inserted downstream of the VP16 transactivation domain, 6×EcRE is six copies of the ecdysone response element, lacZ encodes for the reporter enzyme β-galactosidase. Suhr, S. T., Gil, E. B., Senut M. C., Gage, F. H. (1998) Proc. Natl. Acad. Sci. USA 95, 7999-804. Swevers, L., Drevet, J. R., Lunke, M. D., Iatrou, K. (1995) Insect Biochem. Mol. Biol. 25, 857-866.

In data set [2] the target is T2, GAL4 DBD-CfEcR(DEF)/VP16AD-MmRXRE (Choristoneura fumiferana, UniProt O77240).
T2 sequence (O77240 1-513): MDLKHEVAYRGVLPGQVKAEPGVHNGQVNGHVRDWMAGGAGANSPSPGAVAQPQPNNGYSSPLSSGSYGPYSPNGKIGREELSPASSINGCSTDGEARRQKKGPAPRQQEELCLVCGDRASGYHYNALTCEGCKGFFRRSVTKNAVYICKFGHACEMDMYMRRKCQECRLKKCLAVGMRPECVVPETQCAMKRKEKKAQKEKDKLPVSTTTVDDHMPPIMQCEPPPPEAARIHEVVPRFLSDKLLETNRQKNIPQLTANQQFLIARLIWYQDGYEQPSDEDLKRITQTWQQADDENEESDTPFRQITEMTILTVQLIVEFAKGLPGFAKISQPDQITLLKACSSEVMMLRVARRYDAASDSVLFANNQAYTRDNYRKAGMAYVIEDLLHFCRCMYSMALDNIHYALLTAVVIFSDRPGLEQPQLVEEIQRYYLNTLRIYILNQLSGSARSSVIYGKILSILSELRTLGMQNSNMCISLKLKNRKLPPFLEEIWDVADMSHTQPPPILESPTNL
Kind of data set: cell-based. The conditions noted are these: for 13B3 Rel Max FI: maximum fold induction at any concentration relative to that of GS-E ligand. The text has this: GAL4 DBD-CfEcR(DEF)/VP16AD-MmRXRE: The wild-type D, E, and F domains from spruce budworm Choristoneura fumiferana EcR (“CfEcR-DEF”; SEQ ID NO: 1) were fused to a GAL4 DNA binding domain (“Gal4 DBD1-147”; nucleotides 31 to 471 of SEQ ID NO: 2) and placed under the control of the SV40e promoter of pM vector (PT3119-5, Clontech, Palo Alto, Calif.). The D and E domains from Mus Musculus RXR (“MmRXR-DE”; SEQ ID NO: 10) were fused to the transactivation domain from VP16 (“VP16AD”; SEQ ID NO: 5) and placed under the control of the SV40e promoter of the pVP16 vector (PT3127-5, Clontech, Palo Alto, Calif.).
CHO cells were transienty transfected with transcription cassettes for GAL4 DBD-CfEcR(DEF) and for VP16AD-MmRXRE controlled by SV40e promoters. Stably transfected cells were selected using Hygromycin. Individually isolated CHO cell clones were transiently transfected with a GAL4 RE-luciferase reporter (pMR-Luc, Stratagene, La Jolla, Calif.). The 13B3 clone was selected using Zeocin.
Cells were trypsinized and diluted to a concentration of 2.5×10^4 cells mL. 100 μL of cell suspension was placed in each well of a 96 well plate and incubated at 37° C. under 5% CO2 for 24 h. Ligand stock solutions were prepared in DMSO and diluted 300 fold for all treatments. Dose response testing consisted of 8 concentrations ranging from 33 μM to 0.01 μM.
Luciferase reporter gene expression was measured 48 h after cell treatment using Bright-Glo™ Luciferase Assay System from Promega (E2650). Luminescence was detected at room temperature using a Dynex MLX microtiter plate luminometer.
Fold inductions were calculated from single dose testing by dividing relative light units (RLU) in ligand treated cells by RLU in DMSO treated cells. BC50s were calculated from dose response data using a three-parameter logistic model.

Where [3] appears, read: single dose 33 μM; ligand treated / DMSO treated cells.
Setting [4] is: maximum fold induction at any concentration relative to that of GS-E ligand.

In the case of `COc1cccc(C(=O)NC2(C(=O)c3ccc4c(c3)OCO4)CCCC2)c1C` [Example 43], the “Fold Induction Average, Z3 Assay (33 μM)” value in data set [1] (setting [3]) was found to be 3. In addition, in data set [2], the “Fold Induction Average, 13B3 Assay (33 μM)” value is 2.
For `CC(C)(NC(=O)c1ccccc1)C(=O)c1ccccc1` [Example 104], the “Fold Induction Average, Z3 Assay (33 μM)” value in data set [1] (setting [3]) worked out at 1. In addition, the “Fold Induction Average, 13B3 Assay (33 μM)” value in data set [2] worked out at 0.
On the same counts, the results for `COc1ccccc1C(=O)NC(C)(C)C(=O)c1cccc(C)c1` [Example 116] are 1 and 4.
The corresponding values for `COc1cccc(C(=O)C(C)(Cc2ccccc2)NC(=O)c2cccc(OC)c2C)c1` (stereo not shown) [Example 100] are 2 and 0.
The corresponding values for `CC(C)(NC(=O)c1ccc2c(c1)OCO2)C(=O)c1ccccc1` [Example 106] are 1 and 3.
In general, EC50 refers to the concentration needed to bring the measured effect to its halfway point. For the compound `COc1cccc(C(=O)NC2(C(=O)c3ccccc3)CCCC2)c1C` [Example 1], the CC50 in data set [1] (average; dose response, three-parameter logistic model; read-out: Z3 LC50) amounted to 2.67 µM. In data set [1] (setting [4]), the “Z3 Rel Max FI” value is on record as 0.14. In addition, the “Fold Induction Average, Z3 Assay (33 μM)” value in data set [1] (setting [3]) is 71. Moreover, in data set [2], the “13B3 Rel Max FI” value is 0.00. In addition, the concentration for a half-maximal effect (EC50) in data set [2] (read-out: 13B3 EC50, average, dose response, three-parameter logistic model) was above 33 µM. For the same compound, the “Fold Induction Average, 13B3 Assay (33 μM)” value in data set [2] (single dose 33 μM, RLU ligand treated / RLU DMSO treated cells) was 3.
Turning to `COc1cccc(C(=O)NC(C)(CC(C)C)C(=O)c2ccc(F)c(C)c2)c1C` (stereo not shown) [Example 54], the “Fold Induction Average, Z3 Assay (33 μM)” value in data set [1] (setting [3]) came to 41. Also, in data set [2], the “Fold Induction Average, 13B3 Assay (33 μM)” value turned out to be 0.
The corresponding values for `COc1cccc(C(=O)NC2(C(=O)c3ccc4c(c3)OCO4)CCCCC2)c1C` [Example 47] are 21 and 3.
Regarding `COc1cccc(C(=O)NC(C)(Cc2ccccc2)C(=O)c2cccc(C)c2)c1C` (stereo not shown) [Example 8], the “Fold Induction Average, Z3 Assay (33 μM)” value in data set [1] (setting [3]) turned out to be 15. In addition, the “Fold Induction Average, 13B3 Assay (33 μM)” value in data set [2] is 2.
`COc1cccc(C(=O)NC2(C(=O)c3cccc(C)c3)CCC(=O)CC2)c1C` [Example 61]: the “Fold Induction Average, Z3 Assay (33 μM)” value in data set [1] (setting [3]) turned out to be 102. For the same compound, the “Fold Induction Average, 13B3 Assay (33 μM)” value in data set [2] is reported as 0.
Consider `COc1cccc(C(=O)NC2(C(=O)c3cccc(C)c3)CCC2)c1C` [Example 6], for which the “Z3 Rel Max FI” value in data set [1] (setting [4]) is reported as 0.05. The fold induction at 33 µM amounted to 82 in data set [1] (read-out: Fold Induction Average, Z3 Assay (33 μM)) and 1 in data set [2] (CHO, read-out: Fold Induction Average, 13B3 Assay (33 μM)). Moreover, the CC50 in data set [1] (read-out: Z3 LC50; average; dose response, three-parameter logistic model) was determined as 10.7 µM. Also, the half-maximal effective concentration (EC50) in data set [2] was above 33 µM. In addition, in data set [2], the “13B3 Rel Max FI” value is on record as 0.00.
As to `COc1cccc(C(=O)NC(C(=O)c2cccc(C)c2)(c2ccccc2)C(C)C)c1C` (stereo not shown) [Example 57], the “Fold Induction Average, Z3 Assay (33 μM)” value in data set [1] (setting [3]) is recorded as 8. In addition, in data set [2], the “Fold Induction Average, 13B3 Assay (33 μM)” value came to 0.
The corresponding values for `CC(=O)NC(C(=O)c1ccc(C)cc1)c1ccccc1` (stereo not shown) [Example 92] are 1 and 0.
On the same counts, the results for `COc1cccc(C(=O)C(NC(=O)c2cccc(OC)c2C)C(C)(C)C)c1` (stereo not shown) [Example 114] are 3 and 2.
On the same counts, the results for `COc1cccc(C(=O)NC2(C(=O)c3cccc(C)c3)CCC3(CC2)OCCO3)c1C` [Example 35] are 9 and 2.
As to `COc1cccc(C(=O)NC(C)(C(C)=O)C(C)C)c1C` (stereo not shown) [Example 112], in data set [1] (setting [3]), the “Fold Induction Average, Z3 Assay (33 μM)” value amounted to 1. For the same compound, the “Fold Induction Average, 13B3 Assay (33 μM)” value in data set [2] is recorded as 2.
On to `COc1cccc(C(=O)NC(C)(C(=O)c2ccc3c(c2)OCO3)C(C)C)c1C` (stereo not shown) [Example 111], for which the “Fold Induction Average, Z3 Assay (33 μM)” value in data set [1] (setting [3]) was 1. Moreover, the “Fold Induction Average, 13B3 Assay (33 μM)” value in data set [2] is 0.
Regarding `CC(C)(C)C(NC(=O)c1ccc([N+](=O)[O-])cc1)C(=O)c1ccccc1` (stereo not shown) [Example 98], the “Fold Induction Average, Z3 Assay (33 μM)” value in data set [1] (setting [3]) was 1. The “Fold Induction Average, 13B3 Assay (33 μM)” value in data set [2] came to 0.
The corresponding values for `CCc1ccc(C(=O)NC(C)(C)C(=O)c2ccccc2)cc1` [Example 108] are 2 and 1.
